In patent EP0240907A2, “Use of trans-4-[(2-amino-3,5-dibromobenzyl)amino]cyclohexanol” (priority 1986, dated 1987):
Where a name gives a salt, the structure may show the parent alone.

Assays:
[1] = test system: Kaninchenauge; details: 1%-ige Ambroxol-HCL-Lösung; cited from earlier work
[2] = physchem; assay type: physicochemical; details: water
Method: Bei Anwendung von Ambroxol muß die Dosis 50 bis 100 mg betragen. Berücksichtigt man, daß Ambroxol nur in 1 %iger Lösung stabil ist und alle konzentrierteren Lösungen bei […] Temperaturen zur […], so zeigt dies, […] in der Praxis in einer Dosis von 5 bis 10 ml zur Anwendung kommen müßte, die völlig unrealistisch ist.

[3] = test system: tracheobronchiales oder sinubronchiales Syndrom; details: inhalate in 1 %iger Emser Sole; patients who also had rhinitis needed additional cold remedies; cited from earlier work

## Nc1c(Br)cc(Br)cc1CN[C@H]1CC[C@H](O)CC1 [Ambroxol-HCL]
[1]
  Reizung des Kaninchenauges: keine Reizung

## Nc1c(Br)cc(Br)cc1CN[C@H]1CC[C@H](O)CC1 [Ambroxol, trans-4-[(2-Amino-3,5-dibrom-benzyl)-amino]cyclohexanol]
[2]
  solubility: ≤ 10000 µg/mL
[3]
  Wirksamkeit bei Patienten mit tracheobronchialem oder sinubronchialem Syndrom: wirksam
